The record followed here is ChEMBL document CHEMBL1201862, “PubChem BioAssay data set” (2004).

Where “and” joins values, the source holds several entries; their conditions need not be identical. Equal values may be shown once. Calls of active or inactive are those of the source.

One assay deals with Cytochrome P450 3A4 (Homo sapiens, UniProt P08684).
Assay [1] can be described thus: Luminescence Cell-Based Dose Retest to Confirm Inhibitors of Cancer Stem Cells. [Related pubchem assays (depositor defined):AID2717, AID2721]. It is filed as functional. The following applies: Homo sapiens.
The target of another assay is Paired box protein Pax-8 (Homo sapiens, UniProt Q06710). In words: inhibitors of PAX8-driven TPO luciferase reporter, dose response, RMG-I cells, cherry-pick (AID 687027).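 Note: luciferase reporter driven by Pax8 target thyroperoxidase promoter measured by SteadyGlo luminescence.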 The assay is classed as functional, cell-based.
Paired box protein Pax-8, sequence (Q06710 whole entry): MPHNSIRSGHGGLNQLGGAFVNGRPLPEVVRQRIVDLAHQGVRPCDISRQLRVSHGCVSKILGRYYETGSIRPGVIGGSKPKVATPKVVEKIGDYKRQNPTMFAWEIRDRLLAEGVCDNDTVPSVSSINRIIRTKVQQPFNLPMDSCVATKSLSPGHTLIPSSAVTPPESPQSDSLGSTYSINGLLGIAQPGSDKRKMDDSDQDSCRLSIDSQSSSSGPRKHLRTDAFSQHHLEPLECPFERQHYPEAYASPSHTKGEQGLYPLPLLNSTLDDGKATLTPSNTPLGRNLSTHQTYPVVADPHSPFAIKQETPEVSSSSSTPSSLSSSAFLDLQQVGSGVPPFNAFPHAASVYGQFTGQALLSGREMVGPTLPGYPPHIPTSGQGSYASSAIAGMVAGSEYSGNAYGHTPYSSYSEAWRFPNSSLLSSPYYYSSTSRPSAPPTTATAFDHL
Assay [2] can be described thus: HEp-2 cell cytotoxicity, dose response, cytotoxicity control for RSV inhibitor project, HTS (AID 2410). The assay is classed as functional. The following applies: human respiratory syncytial virus.
Assay [3] can be described thus: inhibitors of intracellular T. cruzi replication, confirmation, NIH3T3 host cells, beta-gal luminescence (AID 2044).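 Note: intracellular parasites grown in NIH/3T3 mouse fibroblasts as host cells; luminescent beta-galactosidase reporter signal from transgenic T. cruzi replicating inside host cells; inhibitors lower the luminescence signal.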 The assay is classed as functional, cell-based.
A short description of assay [4]: cytotoxicity toward NIH3T3 fibroblasts, dose response, counter-screen, cell-based, ATP luminescence, mouse fibroblasts (AID 2010).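 Note: cells exposed to compound for about 90 hours before reading.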 It is filed as functional. (A counterscreen serves to expose hits that act by an unwanted route or on another target.)
The subject of assay [5] is Streptococcus sp. 'group A'. In words: growth inhibition of control SK(-) GAS strain, dose response, counter-screen for streptokinase expression inhibitor project, luminescence, kanamycin, BacTiterGlo, confirmation (AID 1900). The assay is classed as functional, organism-based.
The next assay has as its system Streptococcus. In words: Group A Streptococcus viability loss, dose response, counter-screen for streptokinase expression inhibitor project, luminescence, BacTiterGlo (AID 1915).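 Note: potency for reduction of bacterial viability or growth.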 The assay is classed as functional, organism-based.

Cytochrome P450 3A4, sequence (P08684 whole entry): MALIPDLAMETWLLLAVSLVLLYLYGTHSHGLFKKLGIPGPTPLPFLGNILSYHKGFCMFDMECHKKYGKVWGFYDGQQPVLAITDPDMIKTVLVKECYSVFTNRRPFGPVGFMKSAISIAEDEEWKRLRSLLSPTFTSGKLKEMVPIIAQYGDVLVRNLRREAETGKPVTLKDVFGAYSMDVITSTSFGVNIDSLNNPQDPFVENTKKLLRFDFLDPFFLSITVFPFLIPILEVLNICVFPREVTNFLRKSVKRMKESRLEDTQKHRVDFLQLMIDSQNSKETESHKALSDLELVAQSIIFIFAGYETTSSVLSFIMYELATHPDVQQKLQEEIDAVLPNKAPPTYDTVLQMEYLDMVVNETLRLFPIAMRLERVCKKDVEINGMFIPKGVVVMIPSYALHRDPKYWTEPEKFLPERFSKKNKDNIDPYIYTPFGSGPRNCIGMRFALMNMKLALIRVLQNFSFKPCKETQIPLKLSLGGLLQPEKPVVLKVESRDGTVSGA

`CCN(CC)C(=O)N[C@H]1C[C@H]2c3cccc4[nH]cc(c34)C[C@@H]2N(C)C1`: the AC50 (commonly the midpoint of the concentration-response curve, whichever way the signal moves) at Cytochrome P450 3A4 was 10 µM (inconclusive).
For `Cn1nnnc1Sc1ncnc2scc(-c3cccc4c3sc3ccccc34)c12`, the AC50 in assay [1] is 1.25 µM (active); at Paired box protein Pax-8, 3.89 µM (active).
Consider `Cc1ccc(Nc2cc(C)nc(-c3ccccc3O)n2)cc1`, for which the CC50 (usually the concentration giving 50% cytotoxicity) in assay [2] is 14.6 µM (active).
On to `CON(C)C(=O)c1nnc2c3ccccc3n(S(=O)(=O)c3ccc(C)cc3)c2n1`, for which, at Cytochrome P450 3A4, the AC50 was 3.98 µM (inconclusive) and 3.16 µM (inconclusive).
As for `C=CCn1c2ccccc2c2nnc(SCc3nc(O)[nH]c3C(=O)CCCCC(=O)OCC)nc21`, the half-maximal cytotoxic concentration (CC50) in assay [2] is > 50 µM (active).
With `COc1ccc(-c2nc3cnc(Nc4cccc(OC)c4)nc3n(Cc3cccs3)c2=O)cc1`, on Cytochrome P450 3A4, the AC50 is 6.31 µM (inconclusive).
As for `CC(=O)NNc1cccc(Cl)n1`, the AC50 in assay [1] was > 195 µM (inactive).
With `COc1ccc(N2CCN(C(S)=Nc3cc(C)ccc3C)CC2)cc1`, the concentration at half-maximal activity (AC50) at Cytochrome P450 3A4 was 3.16 µM (inconclusive).
On to `CCS(=O)(=O)N1Cc2ccccc2CC1C(=O)Nc1nnc(SCc2c(Cl)cccc2Cl)s1` (centres undefined), for which, on Paired box protein Pax-8, the AC50 was 34.9 µM (active).
As for `CCCCCn1c(=O)[nH]c2cc(C(=O)NCCCN(C)Cc3ccccc3)ccc2c1=O`, the concentration for a half-maximal effect (EC50) (in general, the concentration that produces a half-maximal response) is 0.911 µM (active) in assay [3] and > 60 µM (inconclusive) in assay [4].
With `O=C(Nc1ccccc1Cl)c1cccc(COc2cc(Cl)ccc2Cl)c1`, the cytotoxic concentration (CC50) in assay [2] is > 50 µM (active).
For `O=c1c2ccc([N+](=O)[O-])cc2ncn1CCOc1ccc(Cl)cc1`, the EC50 in assay [3] is 0.145 µM (active); in assay [4], > 30 µM (not active).
For the compound `COc1ccccc1-c1c(C)nn2c(N)c(-c3ccccc3)cnc12`, the CC50 in assay [2] was 24.2 µM (active).
On the same count and under the same terms, with `CCN(CC(=O)Nc1ccc(S(=O)(=O)N2CCCCC2)cc1)Cc1ccccc1` the figure was 28 µM (active).
With `CC(=O)OC[C@@H]1O[C@H](CCO/N=C(\C)CCN2CCCc3nc(C)c(C)cc32)C=C[C@@H]1OC(C)=O`, the half-maximal activity concentration (AC50) at Cytochrome P450 3A4 was 3.98 µM (inconclusive).
As to `CCC1CCc2sc(C(=O)NC3CCN(Cc4ccccc4)CC3)cc2C1` (centres undefined), the concentration for a half-maximal effect (EC50) in assay [3] is 0.48 µM (active); in assay [4] it was 5.09 µM (active).
For `COCCNC(=O)CCC1CCN(Cc2ccc(-c3ccccc3)cc2)CC1`, the half-maximal effective concentration (EC50) in assay [3] was 1.77 µM (active); in assay [4], > 60 µM (not active).
Take `Cc1nn2c(N3CCN(C)CC3)cc(C(C)(C)C)nc2c1-c1ccccc1`: the concentration for a half-maximal effect (EC50) is 0.145 µM (active) in assay [3] and 4.77 µM (active) in assay [4].
`CCCCn1c(=N)n(CC(=O)C(C)(C)C)c2ccccc21`: the EC50 is 5.54 µM (active) in assay [3] and > 60 µM (not active) in assay [4].
As for `S=C(Nc1ccccc1)Nc1nc2ccccc2n1CCOc1ccc(Br)cc1`, the AC50 in assay [1] is 11.6 µM (active).
Consider `CC1=C(C(N)=O)C(c2cccnc2)n2nc(-c3cccc(C)c3)nc2N1` (centres undefined), for which the EC50 in assay [3] and in assay [4] was > 60 µM (not active) throughout.
Regarding `COC(=O)C1=CN(Cc2ccc(OC)c(OC)c2)C=C(C(=O)OC)C1c1cccc(O)c1`, the concentration giving a half-maximal response (EC50) in assay [3] is 0.311 µM (active); in assay [4], > 60 µM (not active).
With `COc1ccc(Br)cc1C(=O)Nc1ccccc1N1CCN(C(=O)c2ccccc2)CC1`, in assay [2], the CC50 is 29 µM (active). Further, the results for the concentration for a half-maximal effect (EC50) in assay [3] and in assay [4] were 1.46 µM (active) and > 60 µM (not active), respectively.
For `COc1cccc2cc(-c3csc(CCn4nc(C)cc4C)n3)c(=O)oc12`, the CC50 in assay [2] was 41.8 µM (active).
For the compound `Cc1ccc(CN2CCN(Cc3ccc(-n4cccn4)cc3C)CC2CCO)cc1` (centres undefined), the EC50 in assay [3] is 0.651 µM (active); in assay [4], > 30 µM (not active).
Take `Cc1cccc(NC(=O)c2[nH]cnc2C(=O)N[C@@H](Cc2ccccc2)C(=O)OC(C)(C)C)c1`: the EC50 in assay [5] is 2.46 µM (active); in the assay with Streptococcus, 3.87 µM (active).
With `COc1ccc(NC(=O)N2CC3(CCN(C(=O)c4ccncc4)CC3)C2)cc1`, the AC50 on Cytochrome P450 3A4 was 15.8 µM (inconclusive).
For the compound `COc1ccccc1CNc1ccnc(-c2ccccc2Cl)n1`, the AC50 on Cytochrome P450 3A4 was 2.51 µM (inconclusive).
Turning to `CC[C@H]1CC2CN3CCc4c([nH]c5c([C@H]6C[C@H]7[C@H](CC)CN(C)[C@@H](Cc8c6[nH]c6ccccc86)[C@H]7C(=O)OC)c(OC)ccc45)C(C(=O)OC)(C2)C13`, the AC50 in assay [1] was 1.99 µM (active).
Turning to `CC(C)c1ccc(C(=O)NCCCN(C)C)cc1`, the concentration giving a half-maximal response (EC50) in assay [3] was 1.27 µM (active); in assay [4] it was > 60 µM (not active).
In the case of `Cc1cccc(-n2cc(-c3ccccc3)c3c(N4CCOCC4)ncnc32)c1`, the AC50 in assay [1] is 5.24 µM (active).
With `Cc1ccc(CN2CCCC(C(=O)c3sccc3C)C2)o1` (centres undefined), the results for the half-maximal effective concentration (EC50) in assay [3] and in assay [4] were 0.719 µM (active) and > 60 µM (not active), respectively.
For the compound `CCN(CC(=O)Nc1c(C(=O)OC)[nH]c2ccc(C)cc12)c1ccc2c(c1)OCO2`, the 50% cytotoxic concentration (CC50) in assay [2] is > 50 µM (active).
On to `Cc1c(Cl)cnc(NC(=O)COC(=O)CCS(=O)(=O)c2ccccc2)c1Cl`, for which the AC50 at Cytochrome P450 3A4 was 15.8 µM (inconclusive).
For the compound `O=Cc1ccc(Oc2cc(-c3ccccc3)nc(-c3ccccc3)n2)cc1`, the half-maximal activity concentration (AC50) in assay [1] is 3.14 µM (active).
With `O=C(c1cccc(F)c1)N1CCN(c2cc(N3CCCCC3)c(F)cc2[N+](=O)[O-])CC1`, the CC50 in assay [2] was 22.2 µM (active).
For `O=C(NCC1CCCO1)c1ccc([N+](=O)[O-])s1` (centres undefined), the concentration for a half-maximal effect (EC50) in assay [3] was 0.728 µM (active); in assay [4], > 30 µM (not active).
Turning to `Nc1ncc2c(n1)-c1cc(Cl)ccc1SC2`, the EC50 in assay [3] is 1.55 µM (active); in assay [4] it was > 60 µM (not active).
For `O=C(Nc1cccc([N+](=O)[O-])c1)C12CC3CC(C1)CC(n1cnc([N+](=O)[O-])n1)(C3)C2` the same measures were 0.102 µM (active) and > 60 µM (not active).
`COc1ccc2c(c1)CCC1=C2N=C(S)NC1c1ccc(N(C)C)cc1` (centres undefined): the concentration for a half-maximal effect (EC50) in assay [3] was 2.62 µM (active); in assay [4], > 60 µM (not active).
`C[C@H](CO)N1C[C@H](C)[C@@H](CN(C)S(=O)(=O)c2ccc(F)cc2)Oc2ccc(NC(=O)Nc3ccc(C(F)(F)F)cc3)cc2C1=O`: the AC50 in assay [1] is 4.25 µM (active).
For `COc1ccc(/C=N/NC(=O)CCn2cnc(-c3ccccc3)c2-c2ccccc2)cc1OC`, the AC50 in assay [1] was 0.404 µM (active).
Take `C[C@@H]1CN([C@H](C)CO)C(=O)c2cc(NC(=O)Nc3ccc(C(F)(F)F)cc3)ccc2O[C@@H](C)CCCCO[C@H]1CN(C)Cc1ccccc1`: the half-maximal activity concentration (AC50) at Paired box protein Pax-8 was 12.2 µM (active).
With `C/C(=N\c1ccc(C)cc1C)c1sc2ccccc2c1O`, the CC50 in assay [2] was 17.8 µM (active).
Still for that read-out and setting: in the case of `COc1ccc(/N=C2\SC(CC(=O)Nc3ccccc3F)C(=O)N2Cc2ccco2)cc1` (centres undefined) it was 25.1 µM (active).
For `Clc1ccc(-c2csc(N/N=C\c3cccnc3)n2)cc1`, the EC50 is 1.84 µM (active) in assay [3] and > 60 µM (not active) in assay [4].
Take `COC(=O)c1cc(=O)n(Cc2cccs2)/c(=N/c2ccccc2)s1`: in assay [1], the AC50 is 5.15 µM (active).
Turning to `CC12CCC3c4ccc(O)cc4CCC3C1CCC2=O` (centres undefined), in assay [2], the 50% cytotoxic concentration (CC50) is 29.6 µM (active).
`CN(C)Cc1c[nH]c2ccccc12` [GRAMINE]: the AC50 on Cytochrome P450 3A4 was 3.16 µM (inconclusive).
